In ChEMBL document CHEMBL4422633, “Antioxidant-Inspired Drug Discovery: Antitumor Metabolite Is Formed in Situ from a Hydroxycinnamic Acid Derivative upon Free-Radical Scavenging” (J Med Chem, 2019):
Active and inactive are the calls of the source. No cut-off for these calls is given here.

Tests used:
A549 = test: Induction of apoptosis in human A549 cells assessed as early apoptotic cells at 10 uM after 24 hrs by Annexin V/propidium iodide-staining based flow cytometry (reference value: 0.48 +/- 0.01%); type: functional
[1] = target: T1, Serine/threonine-protein kinase Chk1 (Homo sapiens) (UniProt O14757); test: Inhibition of CHK1 phosphorylation at S345 in human MCF7 cells at 10 uM pretreated for 30 mins followed by 10 J/m'2 irradiation and measured after 1 hr by Western blot analysis; type: cell-based
T1 sequence (whole entry): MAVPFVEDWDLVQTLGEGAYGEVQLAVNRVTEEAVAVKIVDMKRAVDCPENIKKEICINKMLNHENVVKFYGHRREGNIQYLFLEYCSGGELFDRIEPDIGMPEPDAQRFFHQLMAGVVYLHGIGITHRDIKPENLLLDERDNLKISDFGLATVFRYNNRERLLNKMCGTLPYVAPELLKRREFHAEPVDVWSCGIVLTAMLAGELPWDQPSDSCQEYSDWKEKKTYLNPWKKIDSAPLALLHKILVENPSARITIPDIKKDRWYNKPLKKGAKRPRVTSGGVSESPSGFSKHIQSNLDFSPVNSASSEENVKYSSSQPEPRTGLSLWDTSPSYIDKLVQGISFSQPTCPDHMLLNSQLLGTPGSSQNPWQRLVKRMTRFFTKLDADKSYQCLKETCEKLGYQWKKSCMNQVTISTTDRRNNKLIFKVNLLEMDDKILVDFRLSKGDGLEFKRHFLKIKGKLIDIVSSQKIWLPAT

NCI-H460 = test: Induction of apoptosis in human NCI-H460 cells assessed as viable cells at 10 uM after 24 hrs by Annexin V/propidium iodide-staining based flow cytometry (reference value: 96.49 +/- 0.96%); type: functional; settings: NCI-H460, 24 h, read-out: Activity
[2] = Induction of apoptosis in human NCI-H460/R cells transfected with MDR assessed as necrotic cells at 10 uM after 24 hrs by Annexin V/propidium iodide-staining based flow cytometry (reference value: 3.17 +/- 0.13%); type: functional
NCI-H661 [3] = test: Induction of apoptosis in human NCI-H661 cells assessed as early apoptotic cells at 10 uM after 24 hrs by Annexin V/propidium iodide-staining based flow cytometry (reference value: 0.31 +/- 0.01%); type: functional
HaCaT [4] = test: Induction of apoptosis in human HaCaT cells assessed as early apoptotic cells at 10 uM after 24 hrs by Annexin V/propidium iodide-staining based flow cytometry (reference value: 0.23 +/- 0.01%); type: cell-based
[5] = Cytotoxicity against mouse L5178 cells assessed as reduction in cell viability after 72 hrs by MTT assay; type: functional, cell-based; settings: L5178, 72 h
NCI-H661 [6] = test: Induction of apoptosis in human NCI-H661 cells assessed as viable cells at 10 uM after 24 hrs by Annexin V/propidium iodide-staining based flow cytometry (reference value: 96.16 +/- 0.96%); type: functional; settings: NCI-H661, 24 h, read-out: Activity
HaCaT [7] = test: Induction of ROS generation in human HaCaT cells assessed as increase DHE positive cells at 10 uM after 24 hrs by DHE-staining based flow cytometry; type: cell-based
HaCaT [8] = test: Induction of DNA damage response in human HaCaT cells assessed as increase in H2AX expression at 10 uM after 24 hrs by alexa fluor 488-staining based flow cytometry; type: cell-based

COC(=O)/C=C/C1(O)C=CC(=O)C=C1
Activity (A549): 0.72% | inhibition [1]: Active | viability at 10 µM (NCI-H460): 89.1% | Activity [2]: 7.51% | Activity (NCI-H661 [3]): 0.18% | Activity (HaCaT [4]): 0.44% | IC50 [5]: 460 nM | viability at 10 µM (NCI-H661 [6]): 45.4% | Activity (HaCaT [7]): Non-Toxic | Activity (HaCaT [8]): Non-Toxic
